Data taken from the supplement of paper PMC10307832.

How the values were obtained:
Test in all cases: relative viability (nuclei count vs DMSO), 5 days (fraction); higher = more cells survive
ChaGo-K-1 = test system: ChaGo-K-1
In short: (§1)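 Nuclei were stained with Hoechst during a one-step fixation (final 0.05% Triton X-100, 1% formaldehyde, 1 ug/ml Hoechst) carried out 5 days after dosing, then counted on 4× images. The cells, lung cancer lines in 1536-well plates, had been dosed by pin tool the day after seeding with one drug alone or a fixed anchor-drug dose plus five library-drug doses (not always all listed) in √10 steps. Relative viability is the nuclei count in treated wells divided by that in vehicle wells, and each value is the median of duplicate plates.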

EKVX = test system: EKVX
In short: as §1

EMC-BAC-2 = test system: EMC-BAC-2
In short: as §1

EPLC-272H = test system: EPLC-272H
In short: as §1

HCC-78 = test system: HCC-78
In short: as §1

HCC-827 = test system: HCC-827
In short: as §1

LK-2 = test system: LK-2
In short: as §1

LU99A = test system: LU99A
In short: as §1

NCI-H1666 = test system: NCI-H1666
In short: as §1

NCI-H1975 = test system: NCI-H1975
In short: as §1

NCI-H2126 = test system: NCI-H2126
In short: as §1

NCI-H23 = test system: NCI-H23
In short: as §1

NCI-H2405 = test system: NCI-H2405
In short: as §1

NCI-H322M = test system: NCI-H322M
In short: as §1

PC-14 = test system: PC-14
In short: as §1

RERF-LC-KJ = test system: RERF-LC-KJ
In short: as §1

SK-LU-1 = test system: SK-LU-1
In short: as §1

SW 1573 = test system: SW 1573
In short: as §1

Structure (SMILES): Nc1ccn([C@@H]2O[C@H](CO)[C@@H](O)[C@@H]2O)c(=O)n1 [Cytarabine] + CC1(C)CCC(c2ccc(Cl)cc2)=C(CN2CCN(c3ccc(C(=O)NS(=O)(=O)c4ccc(N[C@H](CCN5CCOCC5)CSc5ccccc5)c(S(=O)(=O)C(F)(F)F)c4)cc3)CC2)C1 [Navitoclax] (partner 0.5 µM)
- relative viability (ChaGo-K-1; first compound 0.005 µM): 0.74
- relative viability (ChaGo-K-1; first compound 0.01581 µM): 0.505
- relative viability (ChaGo-K-1; first compound 0.05 µM): 0.453
- relative viability (ChaGo-K-1; first compound 0.1581 µM): 0.364
- relative viability (ChaGo-K-1; first compound 0.5 µM): 0.37
- relative viability (EKVX; first compound 0.005 µM): 0.936
- relative viability (EKVX; first compound 0.01581 µM): 0.933
- relative viability (EKVX; first compound 0.05 µM): 0.664
- relative viability (EKVX; first compound 0.1581 µM): 0.298
- relative viability (EKVX; first compound 0.5 µM): 0.198
- relative viability (EMC-BAC-2; first compound 0.005 µM): 0.843
- relative viability (EMC-BAC-2; first compound 0.01581 µM): 0.987
- relative viability (EMC-BAC-2; first compound 0.05 µM): 0.789
- relative viability (EMC-BAC-2; first compound 0.1581 µM): 0.243
- relative viability (EMC-BAC-2; first compound 0.5 µM): 0.19
- relative viability (EPLC-272H; first compound 0.005 µM): 1.01
- relative viability (EPLC-272H; first compound 0.01581 µM): 0.849
- relative viability (EPLC-272H; first compound 0.05 µM): 0.842
- relative viability (EPLC-272H; first compound 0.1581 µM): 0.33
- relative viability (EPLC-272H; first compound 0.5 µM): 0.247
- relative viability (HCC-78; first compound 0.005 µM): 0.879
- relative viability (HCC-78; first compound 0.01581 µM): 0.652
- relative viability (HCC-78; first compound 0.05 µM): 0.684
- relative viability (HCC-78; first compound 0.1581 µM): 0.364
- relative viability (HCC-78; first compound 0.5 µM): 0.219
- relative viability (HCC-827; first compound 0.005 µM): 0.615
- relative viability (HCC-827; first compound 0.01581 µM): 0.529
- relative viability (HCC-827; first compound 0.05 µM): 0.398
- relative viability (HCC-827; first compound 0.1581 µM): 0.264
- relative viability (HCC-827; first compound 0.5 µM): 0.252
- relative viability (LK-2; first compound 0.005 µM): 0.527
- relative viability (LK-2; first compound 0.01581 µM): 0.425
- relative viability (LK-2; first compound 0.05 µM): 0.316
- relative viability (LK-2; first compound 0.1581 µM): 0.191
- relative viability (LK-2; first compound 0.5 µM): 0.194
- relative viability (LU99A; first compound 0.005 µM): 0.906
- relative viability (LU99A; first compound 0.01581 µM): 0.826
- relative viability (LU99A; first compound 0.05 µM): 0.771
- relative viability (LU99A; first compound 0.1581 µM): 0.726
- relative viability (LU99A; first compound 0.5 µM): 0.56
- relative viability (NCI-H1666; first compound 0.005 µM): 0.755
- relative viability (NCI-H1666; first compound 0.01581 µM): 0.796
- relative viability (NCI-H1666; first compound 0.05 µM): 0.718
- relative viability (NCI-H1666; first compound 0.1581 µM): 0.41
- relative viability (NCI-H1666; first compound 0.5 µM): 0.355
- relative viability (NCI-H1975; first compound 0.005 µM): 0.944
- relative viability (NCI-H1975; first compound 0.01581 µM): 1.26
- relative viability (NCI-H1975; first compound 0.05 µM): 1.1
- relative viability (NCI-H1975; first compound 0.1581 µM): 0.567
- relative viability (NCI-H1975; first compound 0.5 µM): 0.359
- relative viability (NCI-H2126; first compound 0.005 µM): 0.866
- relative viability (NCI-H2126; first compound 0.01581 µM): 0.705
- relative viability (NCI-H2126; first compound 0.05 µM): 0.679
- relative viability (NCI-H2126; first compound 0.1581 µM): 0.53
- relative viability (NCI-H2126; first compound 0.5 µM): 0.454
- relative viability (NCI-H23; first compound 0.005 µM): 0.753
- relative viability (NCI-H23; first compound 0.01581 µM): 0.551
- relative viability (NCI-H23; first compound 0.05 µM): 0.394
- relative viability (NCI-H23; first compound 0.1581 µM): 0.206
- relative viability (NCI-H23; first compound 0.5 µM): 0.173
- relative viability (NCI-H2405; first compound 0.005 µM): 0.851
- relative viability (NCI-H2405; first compound 0.01581 µM): 0.671
- relative viability (NCI-H2405; first compound 0.05 µM): 0.424
- relative viability (NCI-H2405; first compound 0.1581 µM): 0.373
- relative viability (NCI-H2405; first compound 0.5 µM): 0.114
- relative viability (NCI-H322M; first compound 0.005 µM): 0.846
- relative viability (NCI-H322M; first compound 0.01581 µM): 0.787
- relative viability (NCI-H322M; first compound 0.05 µM): 0.561
- relative viability (NCI-H322M; first compound 0.1581 µM): 0.46
- relative viability (NCI-H322M; first compound 0.5 µM): 0.366
- relative viability (PC-14; first compound 0.005 µM): 0.918
- relative viability (PC-14; first compound 0.01581 µM): 1.03
- relative viability (PC-14; first compound 0.05 µM): 0.803
- relative viability (PC-14; first compound 0.1581 µM): 0.314
- relative viability (PC-14; first compound 0.5 µM): 0.119
- relative viability (RERF-LC-KJ; first compound 0.005 µM): 0.772
- relative viability (RERF-LC-KJ; first compound 0.01581 µM): 1.02
- relative viability (RERF-LC-KJ; first compound 0.05 µM): 1.08
- relative viability (RERF-LC-KJ; first compound 0.1581 µM): 0.509
- relative viability (RERF-LC-KJ; first compound 0.5 µM): 0.325
- relative viability (SK-LU-1; first compound 0.005 µM): 0.775
- relative viability (SK-LU-1; first compound 0.01581 µM): 0.703
- relative viability (SK-LU-1; first compound 0.05 µM): 0.34
- relative viability (SK-LU-1; first compound 0.1581 µM): 0.266
- relative viability (SK-LU-1; first compound 0.5 µM): 0.179
- relative viability (SW 1573; first compound 0.005 µM): 0.979
- relative viability (SW 1573; first compound 0.01581 µM): 0.79
- relative viability (SW 1573; first compound 0.05 µM): 0.556
- relative viability (SW 1573; first compound 0.1581 µM): 0.223
- relative viability (SW 1573; first compound 0.5 µM): 0.103
